Source: patent US10858393B2, “Crystal of reduced glutathione and method for producing same” (KYOWA HAKKO BIO CO., LTD., priority 2016, dated 2020)
Where two headings read alike, the source gives them in different places.

Legend:
[1] = cited from earlier work
[2] = 100 g/L in water, hermetically sealed, 25° C. or 40° C., FIG. 1
Experimental: The vertical axis represents the peak area of L-cysteinyl-L-glycine with respect to the peak area of reduced glutathione which is taken as 100 in an HPLC analysis of the aqueous solution. […] In FIG. 1, the white circles indicate the results at 40° C., and the black lozenges indicate the results at 25° C.
An α-type crystal of reduced glutathione (manufactured by Kojin Co., Ltd.) was dissolved in water, and thereafter, the solution was adjusted to 100 g/L and hermetically sealed and placed in a thermostat bath at 25° C. or 40° C. while stirring. These reduced glutathione aqueous solutions were sampled over time and subjected to an HPLC analysis.

For `N[C@@H](CCC(=O)N[C@@H](CS)C(=O)NCC(=O)O)C(=O)O` [reduced glutathione, γ-L-glutamyl-L-cysteinyl-L-glycine], the “saturation solubility in water” value ([1]; 10° C.) is listed as 83 mg/mL, the “saturation solubility in water” value ([1]; 25° C.) is listed as 130 mg/mL and the “stability in aqueous solution (formation of L-cysteinyl-L-glycine over time, HPLC)” value [2] is listed as “decomposed over time in a temperature-dependent manner to produce L-cysteinyl-L-glycine”.
